{"source": "patent US12692274B2", "about": "“Tetrahydroisoquinoline derivatives for the treatment of red blood disorders and inflammatory diseases” (Sanofi, priority 2020, dated 2026)", "note": "Where “and” joins values, the source holds several entries; their conditions need not be identical. Equal entries are not always repeated.", "data": [{"tested_on": "NQO1 activation in BEAS-2B cells", "test": "BEAS-2B cellular MTT assay of NQO1 activation, 0% HSA", "format": "cell-based", "details": "Homo sapiens, Serum Free W, read-out: BEAS EC50 (nM) Serum Free W", "summary_of_the_method": "(§1)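 BEAS-2B cells grown in BEBM with BEGM SingleQuots (no GA-1000), kept below 70% confluence, seeded on collagen plates at a density giving 95-100% confluence after 48 h. Plates seeded in medium without HSA (0% HSA condition).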", "units": {"EC50": "nM"}, "values": [{"smiles": "Cc1cc2ccc1C(=O)N1CCc3ccc(cc3C1)C(CC(=O)O)c1cnc(nc1)OCCCCO2", "note": "(stereo not drawn) [Compound 182]", "EC50": "> 1000"}, {"smiles": "O=C(O)CC1c2cnc(nc2)OCCCCOc2ccc(cc2)C(=O)N2CCc3ccc1cc3C2", "note": "(stereo not drawn) [Compound 183]", "EC50": "> 1000"}]}, {"tested_on": "NQO1 activation in BEAS-2B cells", "test": "BEAS-2B cellular MTT assay of NQO1 activation, 0% HSA", "format": "cell-based", "details": "Homo sapiens, serum free, read-out: BEAS EC50 (nM) serum free", "summary_of_the_method": "as §1", "units": {"EC50": "nM"}, "values": [{"smiles": "O=C(O)C[C@H]1c2ccc(nc2)OCCCCCc2ccc(cc2)C(=O)N2CCc3ccc1cc3C2", "note": "[Compound 172]", "EC50": 79.2}, {"smiles": "O=C(O)C[C@@H]1c2ccc(nc2)OCCCCCc2ccc(cc2)C(=O)N2CCc3ccc1cc3C2", "note": "[Compound 173]", "EC50": 3.7}, {"smiles": "Cn1c2cc3cc(cnc31)CCCCCn1nnc3c(Cl)c(ccc31)C(CC(=O)O)c1ccc3c(c1)CN(CC3)C2=O", "note": "(stereo not drawn) [Compound 174]", "EC50": 5.8}, {"smiles": "Cc1c2ccc3c1nnn3CCCCCCc1ccc(cc1)C(=O)N1CCc3ccc(cc3C1)[C@@H]2[C@H](C)C(=O)O", "note": "[Compound 175]", "EC50": 53.3}, {"smiles": "Cc1cc2ccc1C(=O)N1CCc3ccc(cc3C1)C(CC(=O)O)c1ccc(nc1C)OCCCCO2", "note": "(stereo not drawn) [Compound 178]", "EC50": 1160}, {"smiles": "Cc1c2ccc3c1nnn3CCCCCCOc1ccc(cc1)C(=O)N1CCc3ccc(cc3C1)[C@@H]2[C@H](C)C(=O)O", "note": "[Compound 179]", "EC50": 113}]}, {"tested_on": "NQO1 activation in BEAS-2B cells", "test": "BEAS-2B cellular MTT assay of NQO1 activation, 0% HSA", "format": "cell-based", "details": "serum free, read-out: BEAS EC50 (nM) serum free", "summary_of_the_method": "as §1", "units": {"EC50": "nM"}, "values": [{"smiles": "O=C(O)C[C@H]1c2ccc(nc2)OCCCCCc2ccc(cc2)C(=O)N2CCc3ccc1cc3C2", "note": "[Compound 172]", "EC50": 73}, {"smiles": "O=C(O)C[C@@H]1c2ccc(nc2)OCCCCCc2ccc(cc2)C(=O)N2CCc3ccc1cc3C2", "note": "[Compound 173]", "EC50": 4.3}, {"smiles": "Cn1c2cc3cc(cnc31)CCCCCn1nnc3c(Cl)c(ccc31)C(CC(=O)O)c1ccc3c(c1)CN(CC3)C2=O", "note": "(stereo not drawn) [Compound 174]", "EC50": 7.3}, {"smiles": "Cc1c2ccc3c1nnn3CCCCCCc1ccc(cc1)C(=O)N1CCc3ccc(cc3C1)[C@@H]2[C@H](C)C(=O)O", "note": "[Compound 175]", "EC50": 53.7}, {"smiles": "Cc1cc2ccc1C(=O)N1CCc3ccc(cc3C1)C(CC(=O)O)c1ccc(nc1C)OCCCCO2", "note": "(stereo not drawn) [Compound 178]", "EC50": 1140}, {"smiles": "Cc1c2ccc3c1nnn3CCCCCCOc1ccc(cc1)C(=O)N1CCc3ccc(cc3C1)[C@@H]2[C@H](C)C(=O)O", "note": "[Compound 179]", "EC50": 91.5}]}, {"molecular_target": "HIS-Keap1 full length / Biotin-Nrf2 (16-mer) (Homo sapiens, UniProt Q14145)", "sequence (Q14145 whole entry)": "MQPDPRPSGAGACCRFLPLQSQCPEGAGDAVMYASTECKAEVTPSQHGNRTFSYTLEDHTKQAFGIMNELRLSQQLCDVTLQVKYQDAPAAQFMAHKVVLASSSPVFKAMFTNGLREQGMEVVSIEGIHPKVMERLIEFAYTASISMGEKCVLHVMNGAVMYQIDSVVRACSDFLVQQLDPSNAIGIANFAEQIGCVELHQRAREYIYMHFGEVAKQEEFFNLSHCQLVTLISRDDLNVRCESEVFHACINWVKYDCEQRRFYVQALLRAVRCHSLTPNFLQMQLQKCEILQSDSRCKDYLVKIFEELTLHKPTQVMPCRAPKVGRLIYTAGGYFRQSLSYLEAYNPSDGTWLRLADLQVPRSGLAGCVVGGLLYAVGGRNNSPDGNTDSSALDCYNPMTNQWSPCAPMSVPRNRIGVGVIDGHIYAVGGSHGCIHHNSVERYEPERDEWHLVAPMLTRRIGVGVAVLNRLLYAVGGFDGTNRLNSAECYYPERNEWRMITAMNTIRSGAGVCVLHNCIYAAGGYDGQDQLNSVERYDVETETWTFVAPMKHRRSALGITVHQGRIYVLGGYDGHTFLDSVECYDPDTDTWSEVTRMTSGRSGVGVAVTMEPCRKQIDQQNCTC", "test": "biochemical", "details": "not given", "values": [{"smiles": "O=C(O)C[C@H]1c2ccc(nc2)OCCCCCc2ccc(cc2)C(=O)N2CCc3ccc1cc3C2", "note": "[Compound 172]", "IC50": "216 nM and 227 nM"}, {"smiles": "O=C(O)C[C@@H]1c2ccc(nc2)OCCCCCc2ccc(cc2)C(=O)N2CCc3ccc1cc3C2", "note": "[Compound 173]", "IC50": "12.5 nM and 12.4 nM"}, {"smiles": "Cn1c2cc3cc(cnc31)CCCCCn1nnc3c(Cl)c(ccc31)C(CC(=O)O)c1ccc3c(c1)CN(CC3)C2=O", "note": "(stereo not drawn) [Compound 174]", "IC50": "2 nM and 2.1 nM"}, {"smiles": "Cc1c2ccc3c1nnn3CCCCCCc1ccc(cc1)C(=O)N1CCc3ccc(cc3C1)[C@@H]2[C@H](C)C(=O)O", "note": "[Compound 175]", "IC50": "10.4 nM and 10.3 nM"}, {"smiles": "Cc1cc2ccc1C(=O)N1CCc3ccc(cc3C1)C(CC(=O)O)c1ccc(nc1C)OCCCCO2", "note": "(stereo not drawn) [Compound 178]", "IC50": "113 nM and 105 nM"}, {"smiles": "Cc1c2ccc3c1nnn3CCCCCCOc1ccc(cc1)C(=O)N1CCc3ccc(cc3C1)[C@@H]2[C@H](C)C(=O)O", "note": "[Compound 179]", "IC50": "5.7 nM"}, {"smiles": "Cc1cc2ccc1C(=O)N1CCc3ccc(cc3C1)C(CC(=O)O)c1cnc(nc1)OCCCCO2", "note": "(stereo not drawn) [Compound 182]", "IC50": "55.7 nM and 44 nM"}, {"smiles": "O=C(O)CC1c2cnc(nc2)OCCCCOc2ccc(cc2)C(=O)N2CCc3ccc1cc3C2", "note": "(stereo not drawn) [Compound 183]", "IC50": "642 nM and 571 nM"}]}, {"tested_on": "NQO1 activation in BEAS-2B cells", "test": "BEAS-2B cellular MTT assay of NQO1 activation, 0.3% HSA", "format": "cell-based", "details": "BEAS+, read-out: BEAS+ EC50", "summary_of_the_method": "(§2)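 BEAS-2B cells (<70% confluent in culture, BEBM/SingleQuots without GA-1000) seeded in collagen plates with 0.3% or 0% HSA, reaching 95-100% confluency after 48 h at 37 °C, 5% CO2; MTT read-out.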", "units": {"EC50": "nM"}, "values": [{"smiles": "O=C(O)C[C@H]1c2ccc(nc2)OCCCCCc2ccc(cc2)C(=O)N2CCc3ccc1cc3C2", "note": "[Compound 172]", "EC50": 263}, {"smiles": "O=C(O)C[C@@H]1c2ccc(nc2)OCCCCCc2ccc(cc2)C(=O)N2CCc3ccc1cc3C2", "note": "[Compound 173]", "EC50": 13.1}, {"smiles": "Cn1c2cc3cc(cnc31)CCCCCn1nnc3c(Cl)c(ccc31)C(CC(=O)O)c1ccc3c(c1)CN(CC3)C2=O", "note": "(stereo not drawn) [Compound 174]", "EC50": 15.5}, {"smiles": "Cc1c2ccc3c1nnn3CCCCCCc1ccc(cc1)C(=O)N1CCc3ccc(cc3C1)[C@@H]2[C@H](C)C(=O)O", "note": "[Compound 175]", "EC50": 125}, {"smiles": "Cc1cc2ccc1C(=O)N1CCc3ccc(cc3C1)C(CC(=O)O)c1ccc(nc1C)OCCCCO2", "note": "(stereo not drawn) [Compound 178]", "EC50": 933}, {"smiles": "Cc1c2ccc3c1nnn3CCCCCCOc1ccc(cc1)C(=O)N1CCc3ccc(cc3C1)[C@@H]2[C@H](C)C(=O)O", "note": "[Compound 179]", "EC50": 208}]}, {"tested_on": "NQO1 activation in BEAS-2B cells", "test": "BEAS-2B cellular MTT assay of NQO1 activation, 0.3% HSA", "format": "cell-based", "details": "Homo sapiens, BEAS+ W, read-out: BEAS+ W EC50", "summary_of_the_method": "as §2", "units": {"EC50": "nM"}, "values": [{"smiles": "Cc1cc2ccc1C(=O)N1CCc3ccc(cc3C1)C(CC(=O)O)c1cnc(nc1)OCCCCO2", "note": "(stereo not drawn) [Compound 182]", "EC50": "> 10000"}, {"smiles": "O=C(O)CC1c2cnc(nc2)OCCCCOc2ccc(cc2)C(=O)N2CCc3ccc1cc3C2", "note": "(stereo not drawn) [Compound 183]", "EC50": "> 10000"}]}, {"tested_on": "NQO1 activation in BEAS-2B cells", "test": "BEAS-2B cellular MTT assay of NQO1 activation, 0.3% HSA", "format": "cell-based", "details": "Homo sapiens, BEAS+, read-out: BEAS+ EC50", "summary_of_the_method": "as §2", "units": {"EC50": "nM"}, "values": [{"smiles": "O=C(O)C[C@H]1c2ccc(nc2)OCCCCCc2ccc(cc2)C(=O)N2CCc3ccc1cc3C2", "note": "[Compound 172]", "EC50": 188}, {"smiles": "O=C(O)C[C@@H]1c2ccc(nc2)OCCCCCc2ccc(cc2)C(=O)N2CCc3ccc1cc3C2", "note": "[Compound 173]", "EC50": 12.8}, {"smiles": "Cn1c2cc3cc(cnc31)CCCCCn1nnc3c(Cl)c(ccc31)C(CC(=O)O)c1ccc3c(c1)CN(CC3)C2=O", "note": "(stereo not drawn) [Compound 174]", "EC50": 29.4}, {"smiles": "Cc1c2ccc3c1nnn3CCCCCCc1ccc(cc1)C(=O)N1CCc3ccc(cc3C1)[C@@H]2[C@H](C)C(=O)O", "note": "[Compound 175]", "EC50": 104}, {"smiles": "Cc1cc2ccc1C(=O)N1CCc3ccc(cc3C1)C(CC(=O)O)c1ccc(nc1C)OCCCCO2", "note": "(stereo not drawn) [Compound 178]", "EC50": 1410}, {"smiles": "Cc1c2ccc3c1nnn3CCCCCCOc1ccc(cc1)C(=O)N1CCc3ccc(cc3C1)[C@@H]2[C@H](C)C(=O)O", "note": "[Compound 179]", "EC50": 235}]}]}
